Among the test systems are SN12C renal; LOX IMVI melanoma; NCI-H522 lung; 786-0 renal; U251 CNS; SK-MEL-2 melanoma; OVCAR-3 ovarian; MDA-MB-231 breast; NCI/ADR-RES ovarian; HL-60(TB) leukemia.
Assay in all cases: growth of human tumour cells (NCI), 48 h

Among the data in PubChem BioAssay (NCI) are GI50 and TGI values, retold here.

Each structure is given as a SMILES string. Values joined by “and” are separate entries in the source; they are usually repeats but may differ in a detail not shown here. Equal entries are not always repeated.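 Following 48 hours of exposure in 96-well plates, responses at five concentrations were used to interpolate endpoints linearly. Abbreviation: GI50, concentration required for 50% inhibition of growth. The concentration for full growth arrest is given as TGI.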 Where a SMILES comes first, the peptide text is derived from it. Bridges are numbered along the chain shown (N, C = ends). [ ]: non-standard residue; d: D form. aThr = C[C@H](O)[C@H](N)C(=O)O Some results are limits rather than exact numbers.

For the molecule `CC(=O)NC1C(O[C@H]2C[C@H]3[C@@H]4CC=C5C[C@@H](O)CC[C@]5(C)[C@H]4CC[C@]3(C)[C@H]2[C@H](C)C(=O)CCC(C)C)OCC(O)C1O` (some centres not stated), the GI50 in the test with SN12C renal is 8.58 µM; in the test on LOX IMVI melanoma it was 1.45 µM; in the test on NCI-H522 lung it was 8.72 µM; in the test with 786-0 renal it was 0.553 µM; with U251 CNS it was 2.34 µM; in the test on SK-MEL-2 melanoma, 1.35 µM. The values for the GI50 in the test on OVCAR-3 ovarian, in the test on MDA-MB-231 breast and in the test on NCI/ADR-RES ovarian were 5.2 µM, 3.29 µM and 13.1 µM, respectively. Moreover, the TGI in the test on SN12C renal amounted to 26.6 µM; in the test on LOX IMVI melanoma, 5.79 µM; in the test with NCI-H522 lung, 18.8 µM; with 786-0 renal it was 2.21 µM; in the test on U251 CNS, 11.5 µM; in the test on SK-MEL-2 melanoma, 4.11 µM. Besides, the TGI is 34 µM in the test with OVCAR-3 ovarian, 12.4 µM with MDA-MB-231 breast and greater than 42.5 µM with NCI/ADR-RES ovarian.

For `Cc1cc(Br)c(NC(=O)c2c(-c3c(Cl)cccc3Cl)noc2C)c(Br)c1`, the GI50 with SN12C renal, in the test on LOX IMVI melanoma, in the test on NCI-H522 lung, in the test on 786-0 renal, in the test on U251 CNS and in the test on SK-MEL-2 melanoma was greater than 100 µM each time. Further, the GI50 in the test with OVCAR-3 ovarian, in the test on MDA-MB-231 breast, with HL-60(TB) leukemia and in the test on NCI/ADR-RES ovarian was greater than 100 µM throughout. Also, the TGI in the test on SN12C renal, in the test with LOX IMVI melanoma, in the test with NCI-H522 lung, in the test with 786-0 renal, in the test on U251 CNS and in the test with SK-MEL-2 melanoma was greater than 100 µM each time. The TGI in the test with OVCAR-3 ovarian, with MDA-MB-231 breast, with HL-60(TB) leukemia and with NCI/ADR-RES ovarian was greater than 100 µM throughout.

Take `COC12C(COC(=O)NCCO)C3=C(C(=O)C(C)=C(N)C3=O)N1CC1NC12` (configuration not stated): the GI50 with SN12C renal was 34.4 µM; in the test on LOX IMVI melanoma, 22.2 µM; in the test on NCI-H522 lung, 36.1 µM; with 786-0 renal, 41 µM; with U251 CNS it was 45.4 µM; in the test with OVCAR-3 ovarian it was 56.2 µM. Further, the TGI in the test with SN12C renal is greater than 264 µM; in the test with LOX IMVI melanoma it was 64.7 µM; in the test with NCI-H522 lung, 33.5 µM and 99.6 µM; with 786-0 renal it was greater than 264 µM; with SK-MEL-2 melanoma, 79.9 µM and 75.5 µM; with OVCAR-3 ovarian, 141 µM. Moreover, the TGI with MDA-MB-231 breast, with HL-60(TB) leukemia and with NCI/ADR-RES ovarian was greater than 264 µM throughout.

Regarding `CC(C)C[C@@H]1NC(=O)[C@@H]2CCCN2C(=O)[C@@H]2CCCN2C(=O)[C@H](CC(C)C)NC(=O)[C@H](CO)NC(=O)[C@H](CCCCN)NC(=O)[C@H]([C@H](C)O)NC(=O)[C@@H]2CSSC[C@@H](NC1=O)C(=O)N[C@@H](Cc1ccccc1)C(=O)N1CCC[C@H]1C(=O)N[C@@H](CC(=O)O)C(=O)NCC(=O)N[C@@H](CCCN=C(N)N)C(=O)N2` (cyclo(C[aThr]KSLPPL[dC]FPDGR); disulfide 1-9), the GI50 in the test on SN12C renal, with LOX IMVI melanoma, in the test with NCI-H522 lung, in the test with 786-0 renal, with U251 CNS and in the test on SK-MEL-2 melanoma was greater than 50 µM each time. Further, the GI50 in the test with OVCAR-3 ovarian, in the test on MDA-MB-231 breast and in the test on NCI/ADR-RES ovarian was greater than 50 µM each time. Further, the TGI with SN12C renal, with LOX IMVI melanoma, with NCI-H522 lung, in the test with 786-0 renal, in the test on U251 CNS and with SK-MEL-2 melanoma was greater than 50 µM throughout. For the same molecule, the TGI in the test with OVCAR-3 ovarian, in the test on MDA-MB-231 breast and in the test on NCI/ADR-RES ovarian was greater than 50 µM each time.

`COc1ccc(C(O)c2cc3c(N)c(C(=O)Nc4cccc5ccccc45)sc3nc2C)cc1` (configuration not stated): the GI50 is 0.629 µM in the test with SN12C renal; 0.444 µM in the test on LOX IMVI melanoma; 0.157 µM in the test on NCI-H522 lung; 0.499 µM in the test with 786-0 renal; 0.372 µM with U251 CNS; 0.811 µM with SK-MEL-2 melanoma. The GI50 was 2.53 µM in the test on OVCAR-3 ovarian, 0.393 µM in the test with MDA-MB-231 breast, 0.254 µM in the test on HL-60(TB) leukemia and 0.307 µM in the test on NCI/ADR-RES ovarian. Besides, the TGI is greater than 46.8 µM with SN12C renal; greater than 39.9 µM in the test on LOX IMVI melanoma; greater than 42.5 µM with U251 CNS; greater than 43.2 µM in the test with SK-MEL-2 melanoma; 7.5 µM with OVCAR-3 ovarian; 0.652 µM in the test on HL-60(TB) leukemia. The TGI with NCI/ADR-RES ovarian is greater than 50.5 µM.

As for `OCC1CC[N-]CC1.OCC1CC[N-]CC1.[Cl][Pt+2]([Cl])([Cl])[Cl]`, the GI50 in the test on SN12C renal was 30.8 µM; with LOX IMVI melanoma, 11.4 µM; in the test on NCI-H522 lung, 9.53 µM; in the test on 786-0 renal it was 34.9 µM; in the test with U251 CNS it was 19.6 µM; with SK-MEL-2 melanoma, 27 µM. Further, the GI50 in the test with OVCAR-3 ovarian was 45.9 µM; with MDA-MB-231 breast, 33.6 µM; in the test on NCI/ADR-RES ovarian it was 33.8 µM. Also, the TGI in the test with NCI-H522 lung worked out at 46.3 µM; in the test with U251 CNS, 53 µM; in the test with SK-MEL-2 melanoma it was 67.3 µM.

With `CC(=O)O[C@H]1CC2C(C3CC[C@H](C(C)CCC(=O)O)[C@]31C)[C@H](OC(C)=O)C[C@@H]1CC3(CC[C@]21C)OOC1(CCC(C)CC1)OO3` (some centres not stated), the TGI in the test with SN12C renal was 18.3 µM and 9.27 µM; in the test on NCI-H522 lung, 12.3 µM and 3.48 µM; with 786-0 renal it was 20.3 µM and 3.81 µM; with U251 CNS, 17.2 µM and 3.71 µM; with SK-MEL-2 melanoma it was 27.2 µM and 5 µM; in the test with OVCAR-3 ovarian it was 16.4 µM and 5.44 µM. Besides, the TGI in the test with MDA-MB-231 breast was 29.2 µM and 7.65 µM; in the test with HL-60(TB) leukemia, 11.2 µM and 4.41 µM; with NCI/ADR-RES ovarian, 18.3 µM and 4.53 µM. The GI50 with 786-0 renal was 7.66 µM and 1.81 µM; in the test on SK-MEL-2 melanoma it was 10.7 µM and 2.02 µM; with OVCAR-3 ovarian it was 4.65 µM and 2.13 µM; with MDA-MB-231 breast, 9.81 µM and 2.79 µM; in the test on NCI/ADR-RES ovarian it was 4.88 µM and 2.02 µM.

As for `C(=Nc1nc(SCc2ccccc2)nc2[nH]ncc12)c1cccs1`, the GI50 with SN12C renal was greater than 100 µM; in the test with LOX IMVI melanoma, 48.6 µM; in the test with NCI-H522 lung, 59.2 µM; in the test on 786-0 renal it was 79.7 µM; in the test on U251 CNS, 43.6 µM; with SK-MEL-2 melanoma it was 77.4 µM. Further, the values for the GI50 in the test with OVCAR-3 ovarian, in the test on MDA-MB-231 breast and in the test on NCI/ADR-RES ovarian were greater than 100 µM, 37.3 µM and 49.6 µM, respectively. Moreover, the TGI with SN12C renal, in the test with LOX IMVI melanoma, in the test on NCI-H522 lung, in the test with 786-0 renal, in the test with U251 CNS and in the test on SK-MEL-2 melanoma was greater than 100 µM each time. Besides, the TGI with OVCAR-3 ovarian, in the test on MDA-MB-231 breast and in the test with NCI/ADR-RES ovarian was greater than 100 µM each time.
